Source: patent EP1431280A1, “ARYL SULFAMATE DERIVATIVES” (Kyowa Hakko Kogyo Co., Ltd, priority 2001, dated 2003)

Target: T1, recombinant human estrone sulfatase (Homo sapiens, UniProt P08842)
T1 construct: made in house; host or cells: Chinese Hamster Ovary (CHO) cells
T1 sequence (P08842 22-583): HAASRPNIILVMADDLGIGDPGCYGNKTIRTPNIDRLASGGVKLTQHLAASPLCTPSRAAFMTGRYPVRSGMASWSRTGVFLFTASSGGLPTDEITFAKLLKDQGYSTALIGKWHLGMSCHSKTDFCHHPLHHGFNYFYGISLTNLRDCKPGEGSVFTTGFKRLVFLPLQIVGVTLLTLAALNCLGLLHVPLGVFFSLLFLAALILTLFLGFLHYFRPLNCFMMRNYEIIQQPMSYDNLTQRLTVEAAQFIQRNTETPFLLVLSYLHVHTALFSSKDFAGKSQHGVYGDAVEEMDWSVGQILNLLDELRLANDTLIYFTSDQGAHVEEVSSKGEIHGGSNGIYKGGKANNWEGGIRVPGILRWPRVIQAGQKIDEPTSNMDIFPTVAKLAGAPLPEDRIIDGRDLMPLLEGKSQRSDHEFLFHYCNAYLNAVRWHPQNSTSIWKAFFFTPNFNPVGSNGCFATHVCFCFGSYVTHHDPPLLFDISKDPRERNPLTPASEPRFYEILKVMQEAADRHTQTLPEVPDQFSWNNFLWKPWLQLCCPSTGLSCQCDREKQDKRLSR
Assay: Test for inhibition of estrone sulfatase (steroid sulfatase)
Assay type: biochemical
Settings: 4-methylumbelliferyl sulfate 0.3 mmol/L, phosphate buffer pH 7.5, 37 °C, 1 hour, fluorescence of 4-methylumbelliferone; read-out: IC50, inhibitory activity against steroid sulfatase
Experimental: 4-Methylumbelliferyl sulfate (final concentration 0.3 mmol/L), recombinant human estrone sulfatase (7.8 ng/well), and each solution of the test compound having each test concentrations (test compound was dissolved in 0.001 mL of DMSO) were added to a phosphate buffer (pH 7.5) (final volume 0.1 mL) containing 0.28 mol/L sucrose and 0.04 mol/L nicotinamide. An enzyme reaction was conducted at 37 °C for 1 hour. The human estrone sulfatase gene was introduced into Chinese Hamster Ovary (CHO) cells, and the recombinant human estrone sulfatase was expressed, then it was used after partial purification. After completing the enzyme reaction, 2 mol/L glycine-sodium hydroxide solution (pH 10.3) (0.13 mL) was added and stirred. Using a fluorescent plate reader (Cyto Fluor II), the fluorescent strength of the generated 4-methylumbelliferone was measured. The measurements were conducted in duplicate at the same time. The fluctuations within the assay were within 10%. An enzyme reaction without the presence of a test compound was conducted at the same time. The inhibitory activity against estrone sulfatase for each concentration of the test compounds was calculated using the following equation. • A: Amount of 4-methylumbelliferone when test compound is present • B: Amount of 4-methylumbelliferone when test compound is not present [formula]
The inhibitory activity against estrone sulfatase of the aryl sulfamate derivative can be expressed as the concentration (IC50) of aryl sulfamate derivative at which the estrone sulfatase activity in the presence of the aryl sulfamate derivative is half of that when no test compound is added.

For `CCCCCCCNC(=O)C(C#N)=C(C)c1ccc(OS(N)(=O)=O)cc1` [Compound 16], the IC50 was under 12 nM.
With `CCCCCCCCCNC(=O)C(C#N)=C(O)c1ccc(OS(N)(=O)=O)cc1` [Compound 22] the IC50 was under 12 nM.
For `CCCCCCCCCNC(=O)C#Cc1ccc(OS(N)(=O)=O)cc1` [Compound 57], the IC50 was 99 nM.
With `CCCCCCCCCNC(=O)C=C(C#N)c1ccc(OS(N)(=O)=O)cc1` [Compound 47] the IC50 was 44 nM.
Work on `CCCCCCCNC(=O)C(C#N)=Cc1ccc(OS(N)(=O)=O)cc1` [Compound 6] yielded an IC50 of 12 nM.
`CCCCCCCCCNC(=O)C(C#N)=C(CC)c1ccc(OS(N)(=O)=O)cc1` [Compound 17] gave an IC50 of 17 nM.
In the case of `CCCCCCCCCNC(=O)C(C#N)=Cc1ccc(OS(N)(=O)=O)cc1` [Compound 5], the IC50 is reported as 14 nM.
`CCCCCCCCNC(=O)/C(C#N)=C(\C)c1ccc(OS(N)(=O)=O)cc1` [Compound 15] gave an IC50 of under 12 nM.
With `CCCCCCCCCNC(=O)CC(=O)c1ccc(OS(N)(=O)=O)cc1` [Compound 58] the IC50 was 31 nM.
With `CCCCCCCCCNC(=O)C(C#N)=C(CF)c1ccc(OS(N)(=O)=O)cc1` [Compound 19] the IC50 was 35 nM.
